Results reported in patent US12018058B2, “Compositions and methods for diagnosing and/or treating kidney injury” (Boston Medical Center Corporation, priority 2018, dated 2024).
Square brackets hold non-standard residues; d marks the D form. Peptide text beside a SMILES is read from it. βAla = NCCC(=O)O

How the values were obtained:
[1] = target: T1, NPM-Bax complex (Mus musculus, UniProt Q61937); assay: NPM-Bax interaction, Bax immunoprecipitates from renal cortical homogenates after ischemia; format: in vivo, murine; conditions: for Bax-NPM interaction in postischemic renal homogenates: peptide injected 3 hours after bilateral renal ischemia, FIG. 9B
T1 construct: from tissue; host or cells: renal cortical homogenate of C57BL/6J mice after bilateral renal pedicle clamping
Experimental: Similar amounts of Bax were detected in each lane, and input protein amounts for each sample were identical. IB, immunoblot; IP, immunoprecipitation.
Cell, tissue, and urinary proteins were harvested using PD buffer containing 40 mM Tris-HCl, pH 8.0, 500 mM NaCl, 0.1% Nonidet P-40, 6 mM EGTA, and a protease inhibitor cocktail (Set I; Calbiochem, San Diego, CA). NPM was immunoprecipitated overnight with NPM antibodies (catalog no. B0556; Sigma-Aldrich) in the presence of protein A/G-agarose beads at 4° C. NPM accumulation was measured in cytosolic samples extracted with low-dose digitonin ([…]).13 Cytosolic proteins were extracted from renal cortical tissue samples using an extraction kit (Biochain Institute, Newark, CA). Briefly, 50-100 mg of kidney cortex tissue was minced on ice and spin washed with 1 ml ice-cold wash buffer before adding […] of buffer C. The mixture was rotated at 4° C. for 20 minutes and then centrifuged at 18,0003 g at 4° C. for 20 minutes before being harvested. Protein levels were measured with the bicinchoninic acid assay (Thermo Scientific, Rockford, IL).
(§1) NPM is a relevant therapeutic target in human AKI. Primary human proximal tubule epithelial cells (PTEC) derived from cadaveric kidneys were subjected to ischemic stress (transient ATP depletion) in the presence of specific NPM siRNA or non-sense siRNA. […] Thus, manipulating NPM is an effective maneuver. […] Small peptides of 30 amino acids or less are sufficiently specific to minimize off target effects and also reduce the risk of eliciting an antibody response that causes tachyphylaxis. Peptides were commercially synthesized and fused to a nuclear localizing sequence (this NLS has no functional relationship to the “NPM NLS” that regulates NPM translocation). The NLS-CPP markedly increases renal accumulation of small peptides8 as well as in the proximal tubule. […] To determine its effect on NPM-Bax complex formation, active Bax was immunoprecipitated from PTEC rendered ischemic with an antibody directed against the 6A7 epitope. The precipitates were subjected to immunoblot analysis using an anti-NPM antibody. […] NPM and Bax accumulation was measured in mitochondria isolated from human PTEC after ischemic stress. […] This is likely due to the prolonged half-life (about 80 hr) of the peptide in vitro and in vivo due to the presence of an AC modification slows degradation.

[2] = tested on: mitochondrial Bax accumulation; assay: NPM and Bax accumulation in mitochondria isolated from PTEC after ischemic stress; format: cell-based; conditions: mitochondria isolated from human PTEC after ischemic stress
From the text: as §1

[3] = Peptide half-life in vitro and in vivo
[4] = tested on: mice subjected to bilateral renal pedicle clamping; assay: Ischemic AKI by bilateral renal pedicle clamping (BUN, creatinine, survival); format: in vivo, C57BL/6J mice; conditions: for Renal function (serum BUN): days 1-7 post-ischemia, single i.v. dose 100 μg/g within 3 h after 28 min ischemia, versus control peptide; for Animals surviving severe ischemic AKI: single dose 0-3 hours after releasing clamps; for Animal deaths on day 1 post-AKI / Survival / Total deaths / Animal deaths on day 2 post-AKI / Animal deaths on day 3 post-AKI: n = 8; for Animal deaths on day 1 post-AKI / Animal deaths on day 2 post-AKI / Animal deaths on day 3 post-AKI: 28 min renal ischemia; for Survival: 7 d; for Total deaths: recorded for 7 d
From the text: All animals were maintained under the guidance and policies of the Boston University Animal Core facility using National Institutes of Health (NIH) and Institutional Animal Care and Use Committee guidelines. Male and female C57BL/6J mice were purchased from Jackson Laboratory (Bar Harbor, ME), and they were housed and bred at the Boston University Animal Core facility under license number AN-15024. […] Animas were handled in a manner consistent with the NIH guide for their care and use under Institutional Animal Care and Use Committee approval.
Mice were subjected to bilateral renal pedicle clamping after being anesthetized with 2,2,2-tribromoethanol. […] 13,28,29 Slight variation in the clamp time was required to achieve similar degrees of renal dysfunction in the relatively large number of animals studied. The clamp was then removed, and reperfusion was confirmed by visual inspection of the kidneys. Sham ischemia was performed by encircling each renal pedicle with a nonocclusive ligature.
For in vitro testing in primary human PTECs, peptides ([…]) were tested that replicate the Bax domain responsible for binding NPM,34 or two peptides designed to interfere with NPM function were compared with a random nonspecific sequence of the same length (control). Peptides intended to interfere with NPM function overlap key phosphorylation sites located at the NPM amino terminus (peptide 2) or carboxy terminus (peptide 3) detected by mass spectrometry. To improve cell uptake, all peptides contained a cell-penetrating sequence13. For in vivo experiments, a renal-targeting sequence (NLS) was added to enhance renal peptide uptake.35 Peptides were commercially synthesized (Biomatik, Wilmington, DE) J Am Soc Nephrol 30: ccc-ccc, 2018 Nucleophosmin in AKI 3www.jasn.org BASIC RESEARCHas follows: NPM-Bax blocking peptide: Ac-KKKRKV-(bA)-[…]-COOH (SEQ ID NO: 8); peptide 2: AC-PKKKRKV-(bA)-[…]-COOH (SEQ ID NO: 9); and peptide 3: AC-PKKKRKV-(bA)-ESFKK-QEKTPKTPKGPSSVED-IKAK-COOH (SEQ ID NO: 10). […] A total of 42 control and 56 experimental animals were studied.
Transient exposure to metabolic inhibitors replicates ischemia in vivo by activating Bax and causing cell death.13,29,36-38 Cell viability was assayed using a modified colorimetric technique (MTTassay).37 The number of surviving cells is expressed as a percentage of viable control cells detected at baseline. Serum BUN and creatinine levels were measured in tail vein blood samples for 7 days after ischemia using QuantiChrom BUN or creatinine assay kits (BioAssay Systems, Hayward, CA) according to the manufacturer's instructions.

[5] = 28 min bilateral pedicle clamping

T1 sequence (Q61937 whole entry, one chain of several): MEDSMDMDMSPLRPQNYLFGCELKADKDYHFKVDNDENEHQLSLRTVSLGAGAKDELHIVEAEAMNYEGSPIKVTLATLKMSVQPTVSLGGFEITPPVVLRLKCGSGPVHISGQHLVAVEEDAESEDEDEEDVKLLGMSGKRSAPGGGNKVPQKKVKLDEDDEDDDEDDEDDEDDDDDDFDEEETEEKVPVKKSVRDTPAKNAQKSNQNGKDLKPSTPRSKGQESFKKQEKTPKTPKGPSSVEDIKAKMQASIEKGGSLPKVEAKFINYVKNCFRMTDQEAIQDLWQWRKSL

## CC[C@H](C)[C@H](NC(=O)[C@@H](NC(=O)[C@H](CC(C)C)NC(=O)[C@H](CO)NC(=O)[C@H](C)NC(=O)[C@@H](NC(=O)[C@H](CC(C)C)NC(=O)[C@@H](NC(=O)CNC(=O)[C@H](C)NC(=O)[C@@H](NC(=O)[C@H](Cc1ccccc1)NC(=O)[C@@H](NC(=O)[C@@H](NC(=O)[C@@H](NC(=O)[C@@H](NC(=O)CCNC(=O)[C@@H](NC(=O)[C@H](CCCCN)NC(=O)[C@H](CCCNC(=N)N)NC(=O)[C@H](CCCCN)NC(=O)[C@H](CCCCN)NC(=O)[C@H](CCCCN)NC(C)=O)C(C)C)[C@@H](C)O)C(C)C)[C@@H](C)O)[C@@H](C)CC)C(C)C)C(C)C)[C@@H](C)O)[C@@H](C)O)C(=O)N[C@@H](Cc1c[nH]c2ccccc12)C(=O)N[C@@H](CCCCN)C(=O)N[C@@H](CCCCN)C(=O)N[C@@H](CCSC)C(=O)NCC(=O)O [Peptide #1] (Ac-KKKRKV[βAla]TVTIFVAGVLTASLTIWKKMG-OH)
[1]; after ischemia by pedicle clamping
  Decrease of NPM-Bax complex formation in vivo (renal cortical homogenates): about 50%
[1]
  Bax-NPM interaction in postischemic renal homogenates: markedly decreases
[1]; listed as Blocking peptide
  Bax-NPM interaction in postischemic renal homogenates: markedly reduced
[1]; listed as NPM-Bax blocking peptide (Peptide #1)
  Bax-NPM interaction in postischemic renal homogenates: decreases
[2]
  Mitochondrial Bax and NPM accumulation: decreased mitochondrial Bax accumulation to a greater extent than it reduced NPM accumulation
[3]
  half-life: ~80 h
[4]; 22 min bilateral renal ischemia
  Animals surviving: 98%
[4]; [5]
  Animal survival: all survived
  Mean peak BUN: 100 m/dl
[4]; day 1, peptide administered 3 hours after ischemia, versus control
  Serum creatinine: significantly reduced
[4]; day 1 post-ischemia, single dose after 28 min ischemia
  Reduction of serum creatinine: ~50%
[4]; days 1-6, IV within 3 hr after 22 min bilateral renal ischemia, versus random peptide
  Improvement of BUN: 15-35%
[4]; listed as Blocking peptide
  Renal function (serum BUN): significantly improved renal function
[4]; listed as renal targeted peptide designed to interfere with Bax-NPM complex formation
  Renal function (serum BUN): significantly lower BUN levels
[4]; dose above 2 mg/animal (7 μM) or second dose within 24 hr, ischemic PTEC or mice
  Additional protection from higher or repeated dose: did not provide additional protection
[4]; dose administered at 0, 1, 2 or 3 h post-ischemia, listed as Blocking peptide
  Protection against lethal renal ischemia (animal survival): significant protection
[4]; dose administered at 0, 1, 2 or 3 h post-ischemia, listed as blocking peptide
  Protection against lethal renal ischemia (animal survival): for 7-d post-pedicle clamp release; no deaths were observed after 3 d. Significant protection
[4]; mice, administered before the insult
  Reduction of AKI severity: 40-50%
[4]; mouse, in vivo
  Improvement of kidney function (reduced both BUN and creatinine): 50%
[4]; peptide-treated animals
  Recovery of renal function: complete
  Time recovery of renal function was sustained: at least 4 weeks
[4]; same dose administered 4, 5, or 6 h after ischemia, listed as Blocking peptide
  Protection against lethal renal ischemia (animal survival): no protection was observed
[4]; same dose administered 4, 5, or 6 h after ischemia, listed as blocking peptide
  Protection against lethal renal ischemia (animal survival): 3 h post-AKI (P, 0.05); the blocking peptide was not protective if administered at 4, 5, or 6 h
[4]; 28 min ischemia, listed as Blocking peptide
  Animals surviving severe ischemic AKI: 88%
[4]; 28 min ischemia, listed as NPM inhibitor peptide
  Animals surviving severe ischemic AKI: 75%-88%
[4]; single dose 0 h post-AKI
  Animal deaths on day 1 post-AKI: 1
  Survival: 88%
  Total deaths: 1
[4]; single dose 1 h post-AKI
  Animal deaths on day 1 post-AKI: 1
  Animal deaths on day 2 post-AKI: 1
  Survival: 75%
  Total deaths: 2
[4]; single dose 2 h post-AKI
  Animal deaths on day 2 post-AKI: 1
  Survival: 88%
  Total deaths: 1
[4]; single dose 3 h post-AKI
  Animal deaths on day 2 post-AKI: 1
  Survival: 88%
  Total deaths: 1
[4]; single dose 4 h post-AKI
  Animal deaths on day 1 post-AKI: 1
  Animal deaths on day 2 post-AKI: 4
  Animal deaths on day 3 post-AKI: 3
  Survival: 0%
  Total deaths: 8
[4]; single dose 5 h post-AKI
  Animal deaths on day 1 post-AKI: 1
  Animal deaths on day 2 post-AKI: 6
  Survival: 13%
  Total deaths: 7
[4]; single dose 6 h post-AKI
  Animal deaths on day 1 post-AKI: 1
  Animal deaths on day 2 post-AKI: 4
  Animal deaths on day 3 post-AKI: 2
  Survival: 13%
  Total deaths: 7
[4]; single dose within 3 hours postischemia, 28 min ischemia, versus control
  Animal survival: dramatically improved animal survival
